Active and inactive are the calls of the source. No cut-off for these calls is given here.
Assays:
[1] = tested on: unidentified influenza virus; test: Antiviral activity against Influenza virus A2/Asian/J305 infected in ip dosed mouse assessed as concentration required to cause survival at 21 days; type: functional; settings: 504 h, read-out: PD50
[2] = tested on: Respirovirus muris; test: Antiviral activity against Sendai virus infected in ip dosed mouse assessed as protection against viral infection; type: functional, organism-based
[3] = tested on: Enterovirus; test: Antiviral activity against Rhinovirus 42 infected in human WI38 cells assessed as growth inhibition after 7 days by tube dilution method; type: functional, organism-based; settings: WI-38
[4] = tested on: Mus musculus; test: Toxicity in mouse assessed as tremors at > 600 mg/kg, ip measured for 24 hrs; type: organism-based; parameters: dose 600 mg/kg, route intraperitoneal; settings: in vivo
[5] = Acute toxicity in ip dosed mouse measured for 24 hrs; type: organism-based; settings: in vivo
[6] = tested on: Mus musculus; test: Toxicity in mouse assessed as ataxia at > 600 mg/kg, ip measured for 24 hrs; type: organism-based; parameters: dose 600 mg/kg, route intraperitoneal; settings: in vivo
[7] = tested on: Influenza B virus; test: Antiviral activity against Influenza B virus (B/Lee/40) infected in rhesus monkey kidney cells assessed as growth inhibition after 4 days by tube dilution method; type: functional, organism-based; settings: B/Lee/1940
[8] = tested on: unidentified influenza virus; test: Antiviral activity against Influenza virus A2/Asian/J305 infected in mouse assessed as survival at 200 mg/kg, ip administered 3 doses on day of viral infection followed by 2 doses on next day and single dose per day for next 2 days relative to control; type: functional; settings: 48 h, route intraperitoneal
[9] = tested on: unidentified influenza virus; test: Antiviral activity against Influenza virus A2/Asian/J305 infected in mouse assessed as survival at 200 mg/kg, ip administered single dose at 5 mins post viral infection followed by 2 doses per day for next 3 days relative to control; type: functional; settings: route intraperitoneal
[10] = tested on: Semliki Forest virus; test: Antiviral activity against Semliki forest virus infected in ip dosed mouse assessed as protection against viral infection; type: functional, organism-based
[11] = tested on: unidentified influenza virus; test: Antiviral activity against Influenza virus A2/Asian/J305 infected in mouse assessed as survival at 200 mg/kg, ip administered two doses at 48 hrs post viral infection followed by single dose for subsequent days relative to control; type: functional; settings: route intraperitoneal
[12] = Acute toxicity in po dosed mouse measured for 24 hrs; type: organism-based; settings: in vivo
[13] = tested on: unidentified influenza virus; test: Antiviral activity against Influenza virus A2/Asian/J305 infected in mouse assessed as survival at 200 mg/kg, ip administered two doses at 24 hrs post viral infection followed by single dose for subsequent days relative to control; type: functional; settings: route intraperitoneal
[14] = tested on: unidentified influenza virus; test: Antiviral activity against Influenza virus A2/Asian/J305 infected in rhesus monkey kidney cells assessed as concentration required to reduce viral titer by >= 2 logarithms after 4 days by tube dilution method; type: functional
[15] = tested on: Mus musculus; test: Toxicity in mouse assessed as CNS related side effects up to 1000 mg/kg, po measured for 24 hrs; type: organism-based, Central nervous system; parameters: dose 1000 mg/kg, route oral; settings: in vivo
[16] = tested on: Herpesviridae sp.; test: Antiviral activity against Herpes simplex virus infected in ip dosed mouse assessed as protection against viral infection; type: functional, organism-based
[17] = tested on: unidentified influenza virus; test: Antiviral activity against Influenza virus A2/Asian/J305 infected in po dosed mouse assessed as concentration required to cause survival at 21 days; type: functional; settings: 504 h, read-out: PD50
[18] = tested on: Mus musculus; test: Toxicity in mouse assessed as CNS related side effects at 100 mg/kg, ip and 300 mg/kg, po measured for 24 hrs; type: organism-based, Central nervous system; settings: in vivo
[19] = tested on: unidentified influenza virus; test: Antiviral activity against Influenza virus A2/Asian/J305 infected in mouse assessed as survival at 100 mg/kg, ip administered single dose at 5 mins post viral infection followed by 2 doses per day for next 3 days relative to control; type: functional; settings: route intraperitoneal
[20] = tested on: unidentified influenza virus; test: Antiviral activity against Influenza virus A2/Asian/J305 infected in mouse assessed as survival at 50 mg/kg, ip administered 3 doses on day of viral infection followed by 2 doses on next day and single dose per day for next 2 days relative to control; type: functional; settings: 48 h, route intraperitoneal
[21] = tested on: unidentified influenza virus; test: Antiviral activity against Influenza virus A2/Asian/J305 infected in mouse assessed as survival at 100 mg/kg, ip administered two doses at 48 hrs post viral infection followed by single dose for subsequent days relative to control; type: functional; settings: route intraperitoneal
[22] = tested on: unidentified influenza virus; test: Antiviral activity against Influenza virus A2/Asian/J305 infected in mouse assessed as survival at 100 mg/kg, ip administered two doses at 24 hrs post viral infection followed by single dose for subsequent days relative to control; type: functional; settings: route intraperitoneal

NC(=S)NC12CC3CC(CC(C3)C1)C2 gave an ED50 [1] greater than 200 mg/kg.

In the case of Cc1ccc(S(=O)(=O)NC(=S)NC23CC4CC(CC(C4)C2)C3)cc1, the ED50 [1] is reported as greater than 200 mg/kg.

NC(=O)NC(=S)NC12CC3CC(CC(C3)C1)C2 gave an ED50 [1] greater than 400 mg/kg.

O=C(NC(=S)NC12CC3CC(CC(C3)C1)C2)Oc1ccccc1 showed an ED50 [1] greater than 400 mg/kg.

With Nc1ccc(S(=O)(=O)NC(=S)NC23CC4CC(CC(C4)C2)C3)cc1 the Activity [2] was “inactive”, the “growth inhibition (GI)” value [3] was “inactive” and the Activity [4] was “Toxic”. The LD50 at 24 h [5] was 775 mg/kg, the Activity [6] was “Toxic” and the “growth inhibition (GI)” value [7] was “inactive”. The ED50 [1] was 16 mg/kg, the survival at 200 mg/kg [8] was 77% and the survival at 200 mg/kg [9] was 36%. For the same molecule, the Activity [10] was “inactive”, the survival at 200 mg/kg [11] was 0% and the LD50 at 24 h [12] was greater than 1000 mg/kg. The survival at 200 mg/kg [13] was 28%, the Activity [14] was 12.5 µg/mL and the Activity [15] was “Non-toxic”. For the same molecule, the Activity [16] was “inactive” and the ED50 [17] was 35 mg/kg.

With CC(=O)Nc1ccc(S(=O)(=O)NC(=S)NC23CC4CC(CC(C4)C2)C3)cc1 the ED50 [1] was greater than 200 mg/kg.

Molecule O=C1CSC(NC23CC4CC(CC(C4)C2)C3)=N1 has an ED50 [1] greater than 200 mg/kg.

In the case of CCOC(=O)NC(=S)NC12CC3CC(CC(C3)C1)C2, the ED50 [1] is reported as greater than 400 mg/kg.

With NC12CC3CC(CC(C3)C1)C2 [AMANTADINE] the Activity [2] was “inactive”, the “growth inhibition (GI)” value [3] was “inactive” and the Activity [18] was “Toxic”. For the same molecule, the survival at 100 mg/kg [19] was 67%, the survival at 50 mg/kg [20] was 72% and the survival at 100 mg/kg [21] was 0%. The “growth inhibition (GI)” value [7] was “inactive”, the ED50 [1] was 6 mg/kg and the survival at 100 mg/kg [22] was 77%. The Activity [10] was “inactive”, the Activity [14] was 0.05 µg/mL and the Activity [16] was “inactive”. It also gave an ED50 [17] of 4 mg/kg.

CCOC(=O)/N=C(/NC12CC3CC(CC(C3)C1)C2)SC showed an ED50 [1] of 158 mg/kg.

Reference: ChEMBL document CHEMBL3244298, “Adamantylthiourea derivatives as antiviral agents” (J Med Chem, 1979)
